± gives the expanded uncertainty stated by the source.
Assay: xn = mol fraction of the nth substance listed
Details: Liquid, Vibrating tube method

CCCCCCCCCCCCCCCCCC [octadecane] + CCCCCCCCCC
mass density [kg/m3]
Details | 1000 kPa | 2000 kPa | 3000 kPa | 4000 kPa | 5000 kPa | 6000 kPa | 7000 kPa | 8000 kPa | 9000 kPa | 10000 kPa
295.1 K, x2 = 0.5 | 759.7 ± 0.4 | 760.4 ± 0.4 | 761.1 ± 0.4 | 761.7 ± 0.4 | 762.4 ± 0.4 | 763.1 ± 0.4 | 763.7 ± 0.4 | 764.4 ± 0.4 | 765.1 ± 0.4 | 765.8 ± 0.4
295.2 K, x2 = 0.75 | 745.7 ± 0.4 | 746.4 ± 0.4 | 747.1 ± 0.4 | 747.9 ± 0.4 | 748.6 ± 0.4 | 749.3 ± 0.4 | 750 ± 0.4 | 750.7 ± 0.4 | 751.4 ± 0.4 | 752.1 ± 0.4
295.8 K, x2 = 0.9 | 733.9 ± 0.4 | 734.7 ± 0.4 | 735.4 ± 0.4 | 736.2 ± 0.4 | 736.9 ± 0.4 | 737.6 ± 0.4 | 738.4 ± 0.4 | 739.1 ± 0.4 | 739.9 ± 0.4 | 740.6 ± 0.4

Source: the NIST ThermoML archive (doi:10.1021/je300526w)
